Reference: ChEMBL document CHEMBL3817755, “Design, synthesis and biological evaluation of indazolepyrimidine based derivatives as anticancer agents with anti-angiogenic and antiproliferative activities” (Medchemcomm, 2016)

Assays:
Format in all cases: functional
[1] = Growth inhibition of human RPMI8226 cells at 10 uM after 48 hrs by SRB assay; conditions: RPMI-8226, 48 h, read-out: GI
[2] = Growth inhibition of human SF539 cells at 10 uM after 48 hrs by SRB assay; conditions: SF-539, 48 h, read-out: GI
[3] = Growth inhibition of human UO31 cells at 10 uM after 48 hrs by SRB assay; conditions: UO-31, 48 h, read-out: GI
[4] = Growth inhibition of human NCI-ADR-RES cells at 10 uM after 48 hrs by SRB assay; conditions: read-out: GI
[5] = Growth inhibition of human HOP92 cells at 10 uM after 48 hrs by SRB assay; conditions: HOP-92, 48 h, read-out: GI
[6] = Growth inhibition of human UACC257 cells at 10 uM after 48 hrs by SRB assay; conditions: UACC-257, 48 h, read-out: GI
SK-MEL-2 = assay: Growth inhibition of human SK-MEL-2 cells at 10 uM after 48 hrs by SRB assay; conditions: SK-MEL-2, 48 h, read-out: GI
[7] = Growth inhibition of human TK10 cells at 10 uM after 48 hrs by SRB assay; conditions: TK-10, 48 h, read-out: GI
[8] = Growth inhibition of human SW620 cells at 10 uM after 48 hrs by SRB assay; conditions: SW-620, 48 h, read-out: GI
SK-MEL-28 = assay: Growth inhibition of human SK-MEL-28 cells at 10 uM after 48 hrs by SRB assay; conditions: SK-MEL-28, 48 h, read-out: GI
[9] = Growth inhibition of human HCT15 cells at 10 uM after 48 hrs by SRB assay; conditions: HCT-15, 48 h, read-out: GI
[10] = Growth inhibition of human SNB19 cells at 10 uM after 48 hrs by SRB assay; conditions: SNB-19, 48 h, read-out: GI
[11] = Growth inhibition of human HOP62 cells at 10 uM after 48 hrs by SRB assay; conditions: HOP-62, 48 h, read-out: GI
[12] = Growth inhibition of human UACC62 cells at 10 uM after 48 hrs by SRB assay; conditions: UACC-62, 48 h, read-out: GI
NCI-H322M = assay: Growth inhibition of human NCI-H322M cells at 10 uM after 48 hrs by SRB assay; conditions: read-out: GI
MDA-MB-468 = assay: Growth inhibition of human MDA-MB-468 cells at 10 uM after 48 hrs by SRB assay; conditions: MDA-MB-468, 48 h, read-out: GI
EKVX = assay: Growth inhibition of human EKVX cells at 10 uM after 48 hrs by SRB assay; conditions: read-out: GI
[13] = Growth inhibition of human NCI-ADR-RES cells after 48 hrs by SRB assay
[14] = Growth inhibition of human OVCAR3 cells after 48 hrs by SRB assay; conditions: OVCAR-3, 48 h
[15] = Growth inhibition of human OVCAR4 cells after 48 hrs by SRB assay; conditions: OVCAR-4, 48 h
[16] = Growth inhibition of human HOP92 cells after 48 hrs by SRB assay; conditions: HOP-92, 48 h
[17] = Growth inhibition of human HCT116 cells after 48 hrs by SRB assay; conditions: HCT-116, 48 h
NCI-H460 = assay: Growth inhibition of human NCI-H460 cells after 48 hrs by SRB assay; conditions: NCI-H460, 48 h
KM12 = assay: Growth inhibition of human KM12 cells after 48 hrs by SRB assay; conditions: KM12, 48 h
[18] = Growth inhibition of human HOP62 cells after 48 hrs by SRB assay; conditions: HOP-62, 48 h
[19] = Growth inhibition of human Hs 578T cells after 48 hrs by SRB assay
A549 = assay: Growth inhibition of human A549/ATCC cells after 48 hrs by SRB assay; conditions: A549, 48 h
[20] = Growth inhibition of human Caki1 cells after 48 hrs by SRB assay; conditions: CAKI-1, 48 h
[21] = Growth inhibition of human SF268 cells after 48 hrs by SRB assay; conditions: SF-268, 48 h
[22] = Growth inhibition of human SW620 cells after 48 hrs by SRB assay; conditions: SW-620, 48 h
K562 = assay: Growth inhibition of human K562 cells after 48 hrs by SRB assay; conditions: K562, 48 h
CCRF-CEM = assay: Growth inhibition of human CCRF-CEM cells after 48 hrs by SRB assay
[23] = Growth inhibition of human SNB75 cells after 48 hrs by SRB assay; conditions: SNB-75, 48 h
[24] = Growth inhibition of human HL-60(TB) cells after 48 hrs by SRB assay; conditions: HL-60, 48 h
[25] = Growth inhibition of human SKOV3 cells after 48 hrs by SRB assay; conditions: SK-OV-3, 48 h
[26] = Growth inhibition of human TK10 cells after 48 hrs by SRB assay; conditions: TK-10, 48 h
NCI-H23 = assay: Growth inhibition of human NCI-H23 cells after 48 hrs by SRB assay; conditions: NCI-H23, 48 h
[27] = Growth inhibition of human HCC2998 cells after 48 hrs by SRB assay; conditions: HCC 2998, 48 h
[28] = read-out: LC50 (the source's name)

## Fc1ccc(Nc2nccc(Nc3ccc4[nH]ncc4c3)n2)cc1
[1]
  inhibition of growth at 10 µM: 59%
[2]
  inhibition of growth at 10 µM: 22%
[3]
  inhibition of growth at 10 µM: 61%
[4]
  inhibition of growth at 10 µM: 32%
[5]
  inhibition of growth at 10 µM: 81%
[6]
  inhibition of growth at 10 µM: 26%
SK-MEL-2
  inhibition of growth at 10 µM: 24%
[7]
  inhibition of growth at 10 µM: 38%
[8]
  inhibition of growth at 10 µM: 31%
SK-MEL-28
  inhibition of growth at 10 µM: 11%
[9]
  inhibition of growth at 10 µM: 38%
[10]
  inhibition of growth at 10 µM: 12%
[11]
  inhibition of growth at 10 µM: 41%
[12]
  inhibition of growth at 10 µM: 29%
NCI-H322M
  inhibition of growth at 10 µM: 27%
MDA-MB-468
  inhibition of growth at 10 µM: 53%
EKVX
  inhibition of growth at 10 µM: 29%

## COc1cccc(Nc2nccc(Nc3ccc4[nH]ncc4c3)n2)c1
[13]
  GI50: 1.54 µM
  LC50: 14.8 µM
  TGI: 4.36 µM
[14]
  GI50: 1.58 µM
  TGI: 4.07 µM
[14]; [28]
  CC50: 11.1 µM
[15]
  GI50: 1.46 µM
  TGI: 4.03 µM
[15]; [28]
  CC50: 12.5 µM
[16]
  GI50: 1.45 µM
  TGI: 4.14 µM
[16]; [28]
  CC50: 15.3 µM
[17]
  GI50: 1.59 µM
  TGI: 3.23 µM
[17]; [28]
  CC50: 6.54 µM
NCI-H460
  GI50: 1.64 µM
  LC50 (50% lethal concentration): 11.5 µM
  TGI: 4.17 µM
[1]
  inhibition of growth at 10 µM: 140%
KM12
  GI50: 1.64 µM
  TGI: 4.81 µM
KM12; [28]
  CC50: 17.4 µM
[18]
  GI50: 1.71 µM
  LC50: 8.36 µM
  TGI: 3.78 µM
[2]
  inhibition of growth at 10 µM: 86%
[3]
  inhibition of growth at 10 µM: 162%
[4]
  inhibition of growth at 10 µM: 111%
[19]
  GI50: 1.79 µM
  TGI: 4.61 µM
[19]; [28]
  CC50: 15.2 µM
A549
  GI50: 1.71 µM
  TGI: 3.74 µM
A549; [28]
  CC50: 8.22 µM
[5]
  inhibition of growth at 10 µM: 111%
[20]
  GI50: 0.99 µM
  TGI: 2.51 µM
[20]; [28]
  CC50: 6.33 µM
[21]
  GI50: 1.86 µM
  TGI: 5.89 µM
[21]; [28]
  CC50: 22.5 µM
[22]
  GI50: 2.41 µM
  TGI: 6.13 µM
[22]; [28]
  CC50: 21 µM
K562
  GI50: 1.3 µM
  LC50: 7.13 µM
  TGI: 3.89 µM
CCRF-CEM
  GI50: 0.9 µM
  LC50 (concentration for 50% net cell kill): 21.7 µM
  TGI: 4.56 µM
[6]
  inhibition of growth at 10 µM: 89%
SK-MEL-2
  inhibition of growth at 10 µM: 137%
[7]
  inhibition of growth at 10 µM: 178%
[8]
  inhibition of growth at 10 µM: 169%
[23]
  GI50: 1.39 µM
  LC50: 7.08 µM
  TGI: 3.13 µM
SK-MEL-28
  inhibition of growth at 10 µM: 143%
[24]
  GI50: 1.53 µM
  LC50: 8.29 µM
  TGI: 3.56 µM
[25]
  GI50: 2.31 µM
  LC50: 16.4 µM
  TGI: 5.4 µM
[9]
  inhibition of growth at 10 µM: 127%
[10]
  inhibition of growth at 10 µM: 76%
[26]
  GI50: 1.42 µM
  TGI: 2.82 µM
[26]; [28]
  CC50: 5.6 µM
[11]
  inhibition of growth at 10 µM: 111%
[12]
  inhibition of growth at 10 µM: 157%
NCI-H322M
  inhibition of growth at 10 µM: 93%
MDA-MB-468
  inhibition of growth at 10 µM: 145%
NCI-H23
  GI50: 1.69 µM
  TGI: 3.83 µM
NCI-H23; [28]
  CC50: 8.7 µM
EKVX
  inhibition of growth at 10 µM: 66%
[27]
  GI50: 1.79 µM
  TGI: 3.36 µM
[27]; [28]
  CC50: 6.29 µM
